# Measured values: patent US12459951B2, “Compounds that interact with RAS superfamily proteins for treatment of cancers, inflammatory diseases, rasopathies, and fibrotic disease” (SHY Therapeutics, LLC, priority 2022, dated 2025)
# Target: T1, Rho-A (Homo sapiens, UniProt P61586)
# T1 construct: made in house
# Assay: Ras GTP Binding Domain Inhibition Assay (Ras Superfamily Assay)
# Settings: read-out: Rho-A: % inh..
# Summary of the method: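 Binding of 100 nM fluorescent GTP (Cy3 or Cy5, 45 min, room temperature) was read after washes from plate-captured His-tagged protein. Beforehand, compounds at 20 μM or in dilution series for IC50 sat 3 h on the protein in Tris buffer pH 7.4 or 7.0 with 1% DMSO, Sos GEF optionally added for the last hour.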
# T1 sequence (P61586 whole entry): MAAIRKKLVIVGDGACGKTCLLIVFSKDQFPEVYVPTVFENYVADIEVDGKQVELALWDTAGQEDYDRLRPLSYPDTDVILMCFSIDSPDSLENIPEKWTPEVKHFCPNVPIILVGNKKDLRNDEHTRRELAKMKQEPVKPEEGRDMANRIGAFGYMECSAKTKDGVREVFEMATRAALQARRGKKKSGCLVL
row,Structure (SMILES),inhibition at 20 µM
1,"COC1CCCN(c2nc(-c3ccccn3)nn3cc(-c4ccn(C(C)C)n4)c(C)c23)C1 (racemic) [Compound 12, rac 6-(1-Isopropyl-1H-pyrazol-3-yl)-4-(3-methoxypiperidin-1-yl)-5-methyl-2-(pyridin-2-yl)pyrrolo[2,1-f][1,2,4]triazine]",0%
2,"COc1cccc(-c2cn3nc(-c4nccn4C)nc(O)c3c2C)c1Cl [Compound 15, 6-(2-Chloro-3-methoxyphenyl)-5-methyl-2-(1-methyl-1H-imidazol-2-yl)pyrrolo[2,1-f][1,2,4]triazin-4-ol]",1 to 25%

# More lines, now with the values ahead:
row,inhibition at 20 µM,Structure (SMILES)
1,0%,"COCCNc1nc(-c2nccn2C)nn2cc(-c3cccc(OC)c3Cl)c(C)c12 [Compound 16, 6-(2-Chloro-3-methoxyphenyl)-N-(2-methoxyethyl)-5-methyl-2-(1-methyl-1H-imidazol-2-yl)pyrrolo[2,1-f][1,2,4]triazin-4-amine]"
2,0%,"COc1cccc(Nc2nc(-c3ccccn3)nn3cc(-c4ccn(C(C)C)n4)c(C)c23)n1 [Compound 14, 6-(1-Isopropyl-1H-pyrazol-3-yl)-N-(6-methoxypyridin-2-yl)-5-methyl-2-(pyridin-2-yl)pyrrolo[2,1-f][1,2,4]triazin-4-amine]"
3,0%,"COC[C@@H]1CC[C@@H]1CNc1nc(-c2ccccn2)nn2cc(-c3ccn(C(C)C)n3)c(C)c12 (racemic) [Compound 11, rac 6-(1-Isopropyl-1H-pyrazol-3-yl)-N-(((1S,2R)-2-(methoxymethyl)cyclobutyl)methyl)-5-methyl-2-(pyridin-2-yl)pyrrolo[2,1-f][1,2,4]triazin-4-amine]"
4,0%,"COc1cc(Nc2nc(-c3ccccn3)nn3cc(-c4ccn(C(C)C)n4)c(C)c23)ncn1 [Compound 13, 6-(1-Isopropyl-1H-pyrazol-3-yl)-N-(6-methoxypyrimidin-4-yl)-5-methyl-2-(pyridin-2-yl)pyrrolo[2,1-f][1,2,4]triazin-4-amine]"
5,0%,"COCC1CCN(c2nc(-c3ccccn3)nn3cc(-c4ccn(C(C)C)n4)c(C)c23)C1 (racemic) [Compound 10, rac 6-(1-Isopropyl-1H-pyrazol-3-yl)-4-(3-(methoxymethyl)pyrrolidin-1-yl)-5-methyl-2-(pyridin-2-yl)pyrrolo[2,1-f][1,2,4]triazine]"

# Tested on: not listed separately
# Assay: Kinetic Solubility Assay in pH 7.4 Buffer + 2% DMSO
# Format: physicochemical
# Settings: phosphate-buffered saline pH 7.4 with 2% DMSO, aqueous buffer, kinetic from dmso stock, 25° C., two hours
# Description: Biological Example 9: Kinetic Solubility
# Kinetic solubility assay in pH 7.4 Buffer+2% DMSO (“Kinetic Solubility Assay) was performed according to the following protocol: Briefly, using a 20 mM stock solution of the tested compounds in 100% DMSO, dilutions were prepared to a theoretical concentration of 400 μM in duplicates in phosphate-buffered saline pH 7.4 (138 mM NaCl, 2.7 mM KCl, 10 mM K-phosphate) with 2% final DMSO. The tested compounds dilutions in PBS were further allowed to equilibrate at 25° C. on a thermostatic shaker for two hours and then filtered through HTS filter plates using a vacuum manifold. The filtrates of the test compounds were diluted 2-fold with acetonitrile with 2% DMSO before measuring.
# In parallel, using a 20 mM stock solution of the tested compounds in 100% DMSO, dilutions were prepared to theoretical concentrations of 0 μM (blank), 10 μM, 25 μM, 50 μM, 100 μM, and 200 μM in 50% acetonitrile/PBS with 2% final DMSO to generate calibration curves. Ondansetron was used as a reference compound to control proper assay performance. 200 μL of each sample was transferred to a 96-well plate and measured in the 230-550 nm range with a 5 nm step.
# The concentrations of compounds in PBS filtrate are calculated using a dedicated Microsoft Excel calculation script. Proper absorbance wavelengths for calculations are selected for each compound manually based on absorbance maximums (absolute absorbance unit values for the minimum and maximum concentration points within the 0-3 OD range). Each final dataset is visually evaluated by the operator, and goodness of fit (R2) is calculated for each calibration curve. The effective range of this assay is approximately 2-400 μM and the compounds returning values close to the upper limit of the range may have higher actual solubility (e.g., 5′-deoxy-5-fluorouridine).
# Table 8 show kinetic solubility data for selected compounds tested in the Kinetic Solubility assay described above.
row,Structure (SMILES),solubility at 2 h
1,"Cc1c(-c2ccn(C)n2)cn2nc(-c3nccn3C)nc(Nc3ccc(N(C)C)cn3)c12 [Compound 227, N5,N5-Dimethyl-N2-(5-methyl-2-(1-methyl-1H-imidazol-2-yl)-6-(1-methyl-1H-pyrazol-3-yl)pyrrolo[2,1-f][1,2,4]triazin-4-yl)pyridine-2,5-diamine]",< 10 µM
2,"Cc1ccc(Nc2nc(-c3nccn3C)nn3cc(-c4ccn(C)n4)c(C)c23)nc1 [Compound 226, 5-Methyl-2-(1-methyl-1H-imidazol-2-yl)-6-(1-methyl-1H-pyrazol-3-yl)-N-(5-methylpyridin-2-yl)pyrrolo[2,1-f][1,2,4]triazin-4-amine]",< 10 µM
3,"COc1cc(Nc2nc(-c3nccn3C)nn3cc(-c4ccn(C)n4)c(C)c23)ncc1C1CC1 [Compound 238, N-(5-Cyclopropyl-4-methoxypyridin-2-yl)-5-methyl-2-(1-methyl-1H-imidazol-2-yl)-6-(1-methyl-1H-pyrazol-3-yl)pyrrolo[2,1-f][1,2,4]triazin-4-amine]",< 10 µM
4,"Cc1c(-c2ccn(C)n2)cn2nc(-c3nccn3C)nc(Nc3cc4c(cn3)CCO4)c12 [Compound 221, N-(5-Methyl-2-(1-methyl-1H-imidazol-2-yl)-6-(1-methyl-1H-pyrazol-3-yl)pyrrolo[2,1-f][1,2,4]triazin-4-yl)-2,3-dihydrofuro[3,2-c]pyridin-6-amine]",10 to 30 µM
5,"COc1ccc(Nc2nc(-c3nccn3C)nn3cc(-c4ccn(C)n4)c(C)c23)nc1 [Compound 224, N-(5-Methoxypyridin-2-yl)-5-methyl-2-(1-methyl-1H-imidazol-2-yl)-6-(1-methyl-1H-pyrazol-3-yl)pyrrolo[2,1-f][1,2,4]triazin-4-amine]",< 10 µM

# Further lines, results first:
row,solubility at 2 h,Structure (SMILES)
1,< 10 µM,"COc1cc(Nc2nc(-c3nccn3C)nn3cc(-c4ccn(C)n4)c(C)c23)ncc1C [Compound 235, N-(4-Methoxy-5-methylpyridin-2-yl)-5-methyl-2-(1-methyl-1H-imidazol-2-yl)-6-(1-methyl-1H-pyrazol-3-yl)pyrrolo[2,1-f][1,2,4]triazin-4-amine]"
2,10 to 30 µM,"Cc1c(-c2ccn(C)n2)cn2nc(-c3nccn3C)nc(Nc3cc(N4CCOCC4)ccn3)c12 [Compound 222, 5-Methyl-2-(1-methyl-1H-imidazol-2-yl)-6-(1-methyl-1H-pyrazol-3-yl)-N-(4-morpholinopyridin-2-yl)pyrrolo[2,1-f][1,2,4]triazin-4-amine]"
